Numbered stars: 1 amine (or outer) side, 2 acyl side, 3 side chain; on linkers, the order of the positions; unused ones are H or OH. Square brackets hold non-standard residues; d marks the D form. Peptide text beside a SMILES is read from it. * marks the point of attachment. ξ: configuration not given here. X5 = CCc1c2c(nc3ccc(O)cc13)-c1cc3c(c(=O)n1C2)COC(=O)[C@@]3(CC)OC(=O)OCc1ccc(NC(=O)COCC(=O)*)cc1; X4 = O=C([C@H](Cc1cnnn1CCOCCOCCOCCOCCOCCN[*:3])N[*:1])[*:2]; Pteroyl = Nc1nc2ncc(CNc3ccc(C(=O)*)cc3)nc2c(=O)[nH]1; γGlu = O=C(O)[C@H](CCC(=O)[*:2])N[*:1]; ξV = CC(C)C(N)C(=O)O
Tested on: KB, LNCaP, T-47D, RT4 and NCI-H460 tumor cell lines
Assay: Inhibition of tumor cell expansion, CCK8 (CB-50S)
Type: cell-based, human
Method: Cell lines: KB human oral epidermoid carcinoma cells, NCI-H460 human lung cancer cells, RT4 human bladder cancer cells, T-47D human breast cancer cells and LNCaP human prostate cancer cells
The cells were prepared in advance, digested with trypsin, collected and counted; with a complete cell culture medium, KB cells were diluted to 3.5×10^4 cells/ml, LNCaP cells were diluted to 8.0×10^4 cells/ml, T-47D cells were diluted to 1.2×10^4 cells/ml, NCI-H460 cells were diluted to 2.5×10^4 cells/ml, and RT4 cells were diluted to 1.2×10^5 cells/ml; to each well of 96-well plates, 100 μl of the diluted cell solution was added; and negative control and blank control wells were set on each plate. The 96-well plates added with the cells were placed in an incubator at 37° C., 5% CO2 for culturing overnight.
The samples were diluted with a culture medium to desired concentrations (see Table 16). […]
To each well, 15 μl (10% of the liquid volume in a well) of a color developing solution from CCK-8 was added; the plates were incubated at 37° C. for an appropriate time (try to keep the OD value in the range of 1.0-2.0); the covers of the 96-well plates were removed, and the plates were read at 450 nm on a microplate reader (Molecular Devices Spectra MAX Plus). […]

What does the source list for `CCc1c2c(nc3ccc(O)cc13)-c1cc3c(c(=O)n1C2)COC(=O)[C@@]3(CC)OC(=O)OCc1ccc(NC(=O)COCC(=O)NCCOCCOCCOCCOCCOCCn2nncc2C[C@H](NC(=O)CC[C@H](NC(=O)c2ccc(NCc3cnc4[nH]c(N)nc(=O)c4n3)cc2)C(=O)O)C(=O)N[C@@H](CCCCN)C(=O)N[C@@H](CCC(=O)O)C(=O)N[C@@H](Cc2ccccc2)C(=O)N[C@@H](CC(C)C)C(=O)N[C@@H](Cc2cnc[nH]2)C(=O)N2CCC[C@H]2C(=O)N[C@@H](CO)C(=O)N[C@@H](CCCCN)C(=O)NC(C(=O)N[C@@H](CC(=O)O)C(=O)N[C@@H](CC(C)C)C(=O)N2CCC[C@H]2C(=O)N[C@@H](CCCNC(=N)N)C(=O)O)C(C)C)cc1` (some centres unmarked) [CB-50S] ({Pteroyl-γGlu}-[X4](X5)KEFLHPSK[ξV]DLPR-OH)?
inhibitory effect on growth and expansion of tumor cell lines (72 hours, CCK-8): has an inhibitory effect; IC50 compared between cell lines (KB, LNcap, T-47D and RT4 versus NCI-H460): significantly lower
